Columns and labels:
[1] = Inhibition of CYP3A (unknown origin) using testosterone as substrate; type: ADME, Homo sapiens
[2] = Inhibition of CYP3A (unknown origin) using midazolam as substrate; type: ADME, Homo sapiens

IC50 [1] [µM] | IC50 [2] [µM] | Compound
4.3 | 5 | Cn1ncc(NC(=O)c2ccccc2)c1N1CC[C@H](N)CC(F)(F)C1
2.5 | 7.7 | Cn1ncc(NC(=O)OCc2ccccc2)c1N1CC[C@H](N)CC(F)(F)C1
1.7 | 0.84 | Cn1ncc(NC(=O)c2ccccc2)c1N1CCCCC(F)(F)C1
 | > 10 | Cn1ncc(NC(=O)c2ccccc2)c1N1CCC(O)CC(F)(F)C1 (racemic)

Reference: ChEMBL document CHEMBL3621109, “Probing Mechanisms of CYP3A Time-Dependent Inhibition Using a Truncated Model System” (ACS Med Chem Lett, 2015)
